The results in this text go back to patent publication US9862726B2, “Opioid receptor modulating oxabicyclo[2.2.2]octane morphinans” (PURDUE PHARMA L.P., priority 2013, dated 2018).

Assay [1] concerns the target recombinant human kappa opioid receptor (κ) (Homo sapiens (Human), UniProt P41145). The experiment in a line: κ-opioid receptor radioligand dose-displacement binding assay (HEK-293 cells). How it is done:
Membranes from HEK-293 cells, CHO cells or U-2 OS cells expressing the recombinant human kappa opioid receptor (κ) were prepared by lysing cells in ice cold hypotonic buffer (2.5 mM MgCl2, 50 mM HEPES, pH 7.4) (10 mL/10 cm dish) followed by homogenization with a tissue grinder/Teflon pestle. Membranes from a cell line naturally expressing kappa opioid receptor can also be used. Membranes were collected by centrifugation at 30,000×g for 15 min at 4° C. and pellets were resuspended in hypotonic buffer to a final concentration of 1-3 mg/mL. Protein concentrations were determined using the BioRad protein assay reagent with bovine serum albumen as standard. Aliquots of κ receptor membranes were stored at −80° C.
Radioligand dose displacement assays used 0.4 nM [^3H]-U69,593 (GE Healthcare, Piscataway, N.J.; 40 Ci/mmole) with 15 μg membrane protein (recombinant κ opioid receptor expressed in HEK 293 cells; in-house prep) in a final volume of 200 μl binding buffer (5% DMSO, 50 mM Trizma base, pH 7.4). Non-specific binding was determined in the presence of 10 μM unlabeled naloxone or U69,593. All reactions were performed in 96-well polypropylene plates for 1 hour at a temperature of about 25° C. Binding reactions were terminated by rapid filtration onto 96-well Unifilter GF/C filter plates (Perkin Elmer, Shelton, Conn.) presoaked in 0.5% polyethylenimine (Sigma). Harvesting was performed using a 96-well tissue harvester (Perkin Elmer, Shelton, Conn.) followed by five filtration washes with 200 μl ice-cold binding buffer. Filter plates were subsequently dried at 50° C. for 1-2 hours. Fifty μl/well scintillation cocktail (Perkin Elmer, Shelton, Conn.) was added and plates were counted in a Packard Top-Count for 1 min/well.
(§1) In TABLE 3, binding affinity of certain Compounds of the Invention to the μ- and κ-opioid receptors was determined as described above using HEK-293 cells.

Assay [2] addresses T1, κ-opioid receptor (Homo sapiens (Human), UniProt P41145). The experiment in a line: κ-opioid receptor [35S]GTPγS functional assay (HEK-293 cells). Conditions: for Emax: HEK-293 cells, relative to U69,593. The class given is biochemical. As for the experimental part:
(§2) Functional [^35S]GTPγS binding assays were conducted as follows. κ opioid receptor membrane solution was prepared by sequentially adding final concentrations of 0.026 μg/μl κ membrane protein (in-house), 10 μg/mL saponin, 3 μM GDP and 0.20 nM [^35S]GTPγS to binding buffer (100 mM NaCl, 10 mM MgCl2, 20 mM HEPES, pH 7.4) on ice. The prepared membrane solution (190 μl/well) was transferred to 96-shallow well polypropylene plates containing 10 μl of 20× concentrated stock solutions of agonist prepared in DMSO. Plates were incubated for 30 min at a temperature of about 25° C. with shaking. Reactions were terminated by rapid filtration onto 96-well Unifilter GF/B filter plates (Perkin Elmer, Shelton, Conn.) using a 96-well tissue harvester (Packard) and followed by three filtration washes with 200 μl ice-cold binding buffer (10 mM NaH2PO4, 10 mM Na2HPO4, pH 7.4). Filter plates were subsequently dried at 50° C. for 2-3 hours. Fifty μl/well scintillation cocktail (Perkin Elmer, Shelton, Conn.) was added and plates were counted in a Packard Top-Count for 1 min/well.
(§3) κ GTP EC50 is the concentration of a compound providing 50% of the maximal response for the compound at a κ receptor.
(§4) κ GTP Emax (%) is the maximal effect elicited by a compound relative to the effect elicited by U69,593.
(§5) In TABLE 4, activity response of certain Compounds of the Invention to the μ- and κ-opioid receptors was determined as described above for functional assays using HEK-293 cells.
Background: Binding of GTPγS marks nucleotide exchange on a G protein.

Assay [3] addresses T2, μ-opioid receptor (Homo sapiens (Human), UniProt P35372). The experiment in a line: μ-opioid receptor radioligand dose-displacement binding assay (HEK-293 cells). How it is done: Radioligand dose-displacement binding assays for μ-opioid receptors used 0.3 nM [^3H]-diprenorphine (Perkin Elmer, Shelton, Conn.), with […] membrane protein/well in a final volume of 500 μl binding buffer (10 mM MgCl2, 1 mM EDTA, 5% DMSO, 50 mM HEPES, pH 7.4). Reactions were carried out in the absence or presence of increasing concentrations of unlabeled naloxone. All reactions were conducted in 96-deep well polypropylene plates for 2 hours at room temperature. Binding reactions were terminated by rapid filtration onto 96-well Unifilter GF/C filter plates (Perkin Elmer, Shelton, Conn.), presoaked in 0.5% polyethylenimine using a 96-well tissue harvester (Perkin Elmer, Shelton, Conn.) followed by performing three filtration washes with 500 μl of ice-cold binding buffer. Filter plates were subsequently dried at 50° C. for 2-3 hours. BetaScint scintillation cocktail (Perkin Elmer, Shelton, Conn.) was added (50 μl/well), and plates were counted using a Packard Top-Count for 1 min/well. The data were analyzed using the one-site competition curve fitting functions in GraphPad PRISM™ v. 3.0 or higher (San Diego, Calif.), or an in-house function for one-site competition curve-fitting.
as §1

For assay [4], the target named is T2, μ-opioid receptor. The experiment in a line: μ-opioid receptor [35S]GTPγS functional assay (HEK-293 cells). It is filed as biochemical. Particulars: for Emax: HEK-293 cells, relative to DAMGO. As for the experimental part:
(§6) [^35S]GTPγS functional assays were conducted using freshly thawed μ-receptor membranes prepared in-house from a cell line expressing recombinant μ opioid receptor in a HEK-293, CHO or U-2 OS cell background, or purchased from a commercial source (Perkin Elmer, Shelton, Conn.; or DiscovRx, Fremont, Calif.). Assay reactions were prepared by sequentially adding the following reagents to binding buffer (100 mM NaCl, 10 mM MgCl2, 20 mM HEPES, pH 7.4) on ice (final concentrations indicated): membrane protein (0.026 mg/mL), saponin ([…]), GDP ([…]) and [^35S]GTPγS (0.20 nM; Perkin Elmer, Shelton, Conn.). The prepared membrane solution (190 μl/well) was transferred to 96-shallow well polypropylene plates containing 10 μl of 20× concentrated stock solutions of the agonist [D-Ala^2, N-methyl-Phe^4 Gly-ol^5]-enkephalin (DAMGO) prepared in dimethyl sulfoxide (DMSO). Plates were incubated for 30 min at about 25° C. with shaking. Reactions were terminated by rapid filtration onto 96-well Unifilter GF/B filter plates (Perkin Elmer, Shelton, Conn.) using a 96-well tissue harvester (Perkin Elmer, Shelton, Conn.) followed by three filtration washes with 200 μl of ice-cold wash buffer (10 mM NaH2PO4, 10 mM Na2HPO4, pH 7.4). Filter plates were subsequently dried at 50° C. for 2-3 hours. BetaScint scintillation cocktail (Perkin Elmer, Shelton, Conn.) was added (50 μl/well) and plates were counted using a Packard Top-Count for 1 min/well. Data were analyzed using the sigmoidal dose-response curve fitting functions in GraphPad PRISM v. 3.0, or an in-house function for non-linear, sigmoidal dose-response curve-fitting. [^35S]GTPγS functional assays can also be conducted using freshly thawed μ-receptor membranes prepared from a cell line expressing recombinant μ opioid receptor in a CHO-K1 cell background.
(§7) μ GTP EC50 is the concentration of a compound providing 50% of the maximal response for the compound at a μ-opioid receptor.
(§8) μ GTP Emax (%) is the maximal effect elicited by a compound relative to the effect elicited by DAMGO, a standard μ agonist.
as §5

Assay [5] concerns the target T1, κ-opioid receptor. The experiment in a line: κ-opioid receptor functional assay (U-2 OS cells). It is filed as biochemical. Conditions: for Emax: U-2 OS cells, relative to U69,593. How it is done:
as §2, §3, §4
The following TABLE 5 provides results on the activity response of certain Compounds of the Invention at the μ- and κ-opioid receptors determined as described above using U-2 OS cells.

The target in assay [6] is T2, μ-opioid receptor. The experiment in a line: μ-opioid receptor functional assay (U-2 OS cells). It is filed as biochemical. Conditions: for Emax: U-2 OS cells, relative to DAMGO. How it is done:
as §6, §7, §8

A word on the Ki: it is a measure of affinity in units of concentration, obtained from inhibition or displacement. What is called EC50 is the concentration that produces a half-maximal response. Read a high EC50 as lower potency in that assay. One may read the Emax as the size of the effect at its maximum, as opposed to the concentration needed. Consider `COc1ccc2c(c1)[C@]13CCN(CC4CC4)[C@H](C2)[C@]12CC[C@](O)(C3)C(=O)O2` [Compound 4, (4bR,6S,8aS,9R)-11-(cyclopropylmethyl)-6-hydroxy-3-methoxy-5,6,7,8,9,10-hexahydro-9,4b-(epiminoethano)-8a,6-(epoxymethano)phenanthren-15-one], for which the Ki is 251 ± 62.9 nM in assay [1] and 6350 ± 1020 nM on μ-opioid receptor [3]. Also, the EC50 is 2850 ± 1190 nM on κ-opioid receptor [2], more than 20000 nM at μ-opioid receptor [4] and 1110 ± 159 nM on κ-opioid receptor [5]. Besides, the Emax was found to be 92 ± 6.03% on κ-opioid receptor [2], 1% on μ-opioid receptor [4] and 105 ± 7.02% at κ-opioid receptor [5].
On to `COc1ccc2c(c1)[C@]13CCN(CC4CC4)[C@H](C2)[C@]12CC[C@](N)(C3)C(=O)O2` [Compound 3, (4bR,6S,8aS,9R)-6-amino-11-(cyclopropylmethyl)-3-methoxy-5,6,7,8,9,10-hexahydro-9,4b-(epiminoethano)-8a,6-(epoxymethano)phenanthren-15-one], for which the Ki in assay [1] was 248 ± 54.6 nM; at μ-opioid receptor [3], 1330 ± 313 nM. Moreover, the figures for the EC50 at κ-opioid receptor [2], at μ-opioid receptor [4] and on κ-opioid receptor [5] were 3010 ± 274 nM, 2980 ± 706 nM and 807 ± 83.2 nM, respectively. In addition, the Emax worked out at 79.7 ± 10.3% at κ-opioid receptor [2], 48.3 ± 6.01% on μ-opioid receptor [4] and 99 ± 1.73% at κ-opioid receptor [5].
With `COc1ccc2c(c1)[C@]13CCN(CC4CC4)[C@H](C2)[C@]12CC[C@@](NC(=O)c1ccccc1)(CO2)C3` [Compound 18, N-((4bR,6S,8aS,9R)-11-(cyclopropylmethyl)-3-methoxy-5,6,7,8,9,10-hexahydro-9,4b-(epiminoethano)-8a,6-(epoxymethano)phenanthren-6-yl)benzamide], the Ki in assay [1] amounted to 0.032 ± 0.01 nM; on μ-opioid receptor [3], 35.9 ± 8.18 nM. The EC50 is 175 ± 21.7 nM at μ-opioid receptor [4], 0.42 ± 0.016 nM on κ-opioid receptor [5] and 7.53 ± 0.69 nM at μ-opioid receptor [6]. For the same compound, the Emax at μ-opioid receptor [4] worked out at 41 ± 1.58%; on κ-opioid receptor [5] it was 111 ± 2.6%; at μ-opioid receptor [6] it was 107 ± 8.35%.
Take `COc1ccc2c(c1)[C@]13CCN(CC4CC4)[C@H](C2)[C@]12CC[C@@](NC(=O)CCc1ccccc1)(CO2)C3` [Compound 19, N-((4bR,6S,8aS,9R)-11-(cyclopropylmethyl)-3-methoxy-5,6,7,8,9,10-hexahydro-9,4b-(epiminoethano)-8a,6-(epoxymethano)phenanthren-6-yl)-3-phenylpropanamide]: the inhibition constant Ki stood at 1.58 ± 0.44 nM in assay [1] and 9.26 ± 3.2 nM at μ-opioid receptor [3]. In addition, the figures for the EC50 on μ-opioid receptor [4], on κ-opioid receptor [5] and at μ-opioid receptor [6] were 41.2 ± 12.8 nM, 2.84 ± 0.33 nM and 1.37 ± 0.11 nM, respectively. Further, the figures for the Emax on μ-opioid receptor [4], on κ-opioid receptor [5] and on μ-opioid receptor [6] were 29.8 ± 1.96%, 109.7 ± 0.33% and 102 ± 5.7%, respectively.
On to `COc1ccc2c(c1)[C@]13CCN(CC4CC4)[C@H](C2)[C@]12CC[C@@](NCC1CCCCC1)(CO2)C3` [Compound 11, (4bR,6S,8aS,9R)—N-(cyclohexylmethyl)-11-(cyclopropylmethyl)-3-methoxy-5,6,7,8,9,10-hexahydro-9,4b-(epiminoethano)-8a,6-(epoxymethano)phenanthren-6-amine], for which the inhibitory constant (Ki) in assay [1] turned out to be 0.052 ± 0.015 nM; on μ-opioid receptor [3] it was 0.93 ± 0.11 nM. Also, the EC50 at μ-opioid receptor [4] came out at 1.78 ± 0.05 nM; at κ-opioid receptor [5] it was 0.042 nM; at μ-opioid receptor [6] it was 0.033 nM. The Emax was 75.7 ± 4.1% at μ-opioid receptor [4], 101.3 ± 0.88% at κ-opioid receptor [5] and 101 ± 2.08% at μ-opioid receptor [6].
Turning to `COc1ccc2c(c1)[C@]13CCN(CC4CC4)[C@H](C2)[C@]12CC[C@@](NC(=O)CC(F)(F)F)(CO2)C3` [Compound 23, N-((4bR,6S,8aS,9R)-11-(cyclopropylmethyl)-3-methoxy-5,6,7,8,9,10-hexahydro-9,4b-(epiminoethano)-8a,6-(epoxymethano)phenanthren-6-yl)-3,3,3-trifluoropropanamide], the Ki in assay [1] is 0.66 ± 0.22 nM; on μ-opioid receptor [3] it was 136 ± 35.7 nM. Further, the EC50 on μ-opioid receptor [4] came to 419 ± 108 nM; at κ-opioid receptor [5], 1.79 ± 0.25 nM; on μ-opioid receptor [6], 21.6 ± 1.38 nM. The figures for the maximal effect (Emax) at μ-opioid receptor [4], at κ-opioid receptor [5] and on μ-opioid receptor [6] were 39.5 ± 2.1%, 115 ± 3.06% and 98.7 ± 1.45%, respectively.
For `COc1ccc2c(c1)[C@]13CCN(CC4CC4)[C@H](C2)[C@]12CC[C@@](NCc1ccccc1)(CO2)C3` [Compound 10, (4bR,6S,8aS,9R)-N-benzyl-11-(cyclopropylmethyl)-3-methoxy-5,6,7,8,9,10-hexahydro-9,4b-(epiminoethano)-8a,6-(epoxymethano)phenanthren-6-amine], the values for the Ki (in assay [1]; at μ-opioid receptor [3]) were 0.026 nM and 25.9 ± 5.36 nM, respectively. Further, the EC50 on μ-opioid receptor [4] is 53.3 ± 3.93 nM; at κ-opioid receptor [5], 0.23 ± 0.01 nM; on μ-opioid receptor [6], 2.08 ± 0.12 nM. In addition, the results for the Emax on μ-opioid receptor [4], on κ-opioid receptor [5] and at μ-opioid receptor [6] were 31.7 ± 1.67%, 107 ± 5.36% and 110 ± 2.52%, respectively.
